Reference: US20130296358A1, “3-SPIROCYCLIC PIPERIDINE DERIVATIVES AS GHRELIN RECEPTOR AGONISTS” (priority 2012, published 2013)

Key:
[1] = test system: rat fundus; assay: Rat fundus contractility assay (EFS-induced contraction of muscle strips); conditions: for EC50: increase of EFS-induced contraction, mean of preparations from at least 3 animals; for Emax / Emax/%: relative to the response to ghrelin (100 nM), defined as 100%
Method: Male Sprague Dawley rats (180-250 g) were culled by cervical dislocation and the fundus was removed. Each fundus was placed on a Krebs Henseleit (KH) buffer soaked dissection dish and cut along the long curvature to form a flattened sheet that was pinned in each corner. Four adjacent longitudinal strips (10×3 mm) were cut and the mucosa removed by sharp dissection. Each muscle strip was mounted in a 10 ml organ bath containing oxygenated KH at 37° C. Each strip was connected to an isometric force transducer, calibrated initially using a 5 g weight. The signal (g tension) was amplified and responses recorded by a Powerlab data capture system, connected to a computer running Labchart software (version 5.0). Tissues were placed under 1 g tension for an equilibration period of 30 min or until the baseline tension had stabilised. Carbachol (CCh, 100 nM) was then administered to establish the maximum contractile response of each preparation. Tissues were washed thoroughly and left for 30 min to re-equilibrate. Next, the muscle strips underwent electrical field stimulation (EFS). Maximal EFS pulse trains of 12V, 5 Hz, 0.1 msec pulse width, for 2 sec every 60 sec were applied until consistent electrically-stimulated phasic contractions were recorded. The voltage was then reduced in 1V increments until a consistent submaximal (EC50-75) EFS response was observed. Ghrelin (100 nM) was administered and left until a maximum response was obtained. Tissues were then washed thoroughly and left for 30 min. Once the EFS-induced contraction had re-stabilised, cumulative additions (10 nM-10 μM) of each test compound were administered. Individual responses were calculated by determining the peak of the EFS-induced contraction minus the baseline. […] The mean EC50 value for compounds was generated from data obtained on stomach preparations from at least 3 different animals.

[2] = target: T1, human recombinant ghrelin receptor (GHS-R1a) (Homo sapiens, UniProt Q92847); assay: Calcium assay, CHO-K1 cells expressing hGHS-R1a (Fluo-4); type: cell-based; conditions: for Emax: CHO-K1, relative to the Emax induced by MK-0677 (defined as 100%), read-out: hGHS-R1a Ca assay Emax/%
T1 construct: host or cells: CHO-K1
T1 sequence (Q92847 whole entry): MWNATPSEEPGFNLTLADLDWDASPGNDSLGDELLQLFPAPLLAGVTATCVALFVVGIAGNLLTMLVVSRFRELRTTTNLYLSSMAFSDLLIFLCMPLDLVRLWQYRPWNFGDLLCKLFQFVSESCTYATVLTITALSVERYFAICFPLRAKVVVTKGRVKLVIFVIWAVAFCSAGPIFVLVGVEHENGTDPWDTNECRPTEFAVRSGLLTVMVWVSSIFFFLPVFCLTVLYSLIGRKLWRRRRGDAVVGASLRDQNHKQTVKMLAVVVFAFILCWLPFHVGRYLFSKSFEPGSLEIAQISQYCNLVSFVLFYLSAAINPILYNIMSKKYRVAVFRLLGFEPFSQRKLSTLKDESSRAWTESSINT
Method: (§1) Chinese hamster ovary (CHO-K1) cells expressing human recombinant ghrelin receptor (GHS-R1a) were purchased from Euroscreen (ES-410-C) and propagated in UltraCHO medium containing glutamine and supplemented with 1% heat inactivated foetal calf serum (FCS), 100 U/ml penicillin, 100 mg/l streptomycin and 0.8 g/l geneticin. Cells were sub-cultured twice a week with a 1:10 dilution. For passaging, cells were washed with 1× DPBS without calcium and magnesium, trypsinised for 10 min with 0.05% Trypsin/EDTA and resuspended in cell culture medium.
Cells were diluted to achieve 1×10^6 cells/ml, seeded in 384-well black clear bottom CellBind plates at 25000 cells/well (25u1) and incubated overnight at 37° C./5% CO2 Cells were expected to be 85-90% confluent on the day of assay (checked under the microscope) to ensure a high quality assay. Media was manually removed and 40 μl of loading solution containing probenecid and Fluo-4 no wash dye (a calcium indicator, Invitrogen F36206) were added to each well. After 30 min at 37° C. followed by another 30 min at RT, cpds were added to the wells. To generate a dose response up to 30 μM, 10 mM compound stocks in 100% (v/v) DMSO were firstly diluted in 50% (v/v) DMSO. Then, serial dilutions aimed at a full logarithmic dose responses (8 point) were performed in assay buffer [1×HBSS, 20 mM Hepes, 0.1% (w/v) BSA] to give 2.5% (v/v) DMSO and 5× final compound concentrations. The final assay DMSO concentration was 0.5% (v/v). After loading the cells with Fluo-4 containing solution, plates were read on a CeIlLux instrument (Perkin Elmer). A protocol set up to add 10 μl of 5× compound and to read the plate for 60sec after adding the compound at 17th sec was used. Fluorescence excitation took place at 494 nm and emission at 516 nm. EC50 values of agonists were calculated by fitting the percent stimulation over background [(Max-Min)/Min] using the nonlinear logistic function of the Prism 5 software (GraphPad, USA).

[3] = target: T1, human recombinant ghrelin receptor (GHS-R1a); assay: cAMP assay (HTRF), CHO-hGHS-R1a cells; type: cell-based; conditions: relative to the ghrelin response (defined as 100%)
Method: as §1
The Homogeneous Time-Resolved Fluorescence (HTRF) cAMP dynamic 2 kit (Cisbio International, France) was used as follows. CHO-hGHS—R1a or CHO-rGHS—R1a cells were seeded in a volume of 25 μl culture media at 10,000 cells/well (400,000 cells/ml) in Greiner white 384-well high volume plates and incubated overnight (18-24 h) at 37° C./5% CO2. Then, media was removed and 6 μl assay buffer [HBSS, 10 mM Hepes, 0.2% (w/v) BSA, 1.7 mM IBMX, (pH7.4)] were added to the wells. To generate a dose response up to 30 μM, 10 mM compound stocks in 100% (v/v) DMSO were firstly diluted in 50% (v/v) DMSO followed by a further dilution into assay buffer. Then, 4 μl of 2.5× compound (dose response as 9 point log serial dilution in assay buffer from 30 μM as maximum concentration) were added to each well achieving a final DMSO assay concentration of 0.8% (v/v). 0.1 μM forskolin was added as positive control. After 30 min (rGHS—R1a cell line) or 60 min (hGHS—R1a cell line) incubation at 37° C./5% CO2, 5 μl of cAMP-d2 and 5 μl of anti-cAMP antibody-cryptate, (both made in lysis buffer), were added to the plate followed by 1 h incubation at RT. During this time, cAMP produced by the cells competed with cAMP-d2 for the anti-cAMP antibody-cryptate molecule. Then, the plate was read on the Pherastar instrument (BMG, Germany) at two different emission wavelengths ([…]). Increasing levels of endogenous cAMP produced by cells could be followed by a decrease of FRET fluorescent signal and viceversa. Values represented by a change in arbitrary fluorescence ratios (665/620) were converted into cAMP concentrations by using a standard curve, the reagents for which were supplied with the kit. EC50 values of agonists were calculated using the nonlinear logistic function of the Prism 5 software (GraphPad, USA). Emax were expressed as relative values of the ghrelin response, which was defined as 100%.

[4] = Aqueous solubility of crystalline L-malate salt forms versus free base; type: physicochemical; conditions: compared to the free base amorphous form

EC50 ([1]; Rattus norvegicus) [nM] | Emax [2] [%] | Emax [3] [%] | EC50 [1] [nM] | hGHS-R1a cAMP assay Emax/% [3] [%] | hGHS-R1a Ca assay Emax/% ([2]; relative to the Emax induced by MK-0677 (defined as 100%)) [%] | aqueous solubility [4] | Compound | Emax ([1]; Rattus norvegicus) [%] | Emax/% [1] [%]
13 | 101 | 210 | – | – | – | – | CN(C)C(=O)CN1CC(c2ccccc2)C2(CCCN(C(=O)[C@@H](COCc3ccccc3)NC(=O)C(C)(C)N)C2)C1=O (single isomer, unassigned) [Example 1.16] | 124 | –
137 | 107 | 124 | – | – | – | – | CNC(C)(C)C(=O)N[C@H](COCc1ccccc1)C(=O)N1CCCC2(C1)C(=O)N(C)CC2c1ccccc1 (single isomer, unassigned) [Example 1.17] | 113 | –
– | 99 | – | 393 | 169 | – | – | CN1CC(c2ccccc2)C2(CCCN(C(=O)[C@@H](COCc3ccccc3)NC(=O)C(C)(C)N)C2)C1=O (single isomer, unassigned) [Example 1.20] | – | 39
– | – | – | 84 | 122 | 105 | – | CN1CC(c2ccccc2)C2(CCCN(C(=O)[C@@H](COCc3ccccc3)NC(=O)C(C)(C)N)C2)C1=O (single isomer, unassigned) [Example 1.21] | – | 81
48 | 102 | 243 | – | – | – | – | Cc1ccc(COC[C@@H](NC(=O)C(C)(C)N)C(=O)N2CCCC3(C2)C(=O)N(C)CC3c2ccc(F)cc2)cc1 (single isomer, unassigned) [Example 1.29] | 100 | –
– | 103 | 176 | 19 | – | – | – | CN1CC(c2ccccc2)C2(CCCN(C(=O)[C@@H](CCCc3ccccc3)NC(=O)C(C)(C)N)C2)C1=O (single isomer, unassigned) [Example 1.32] | – | 109
68 | 107 | 168 | – | – | – | – | C[C@H](OCc1ccccc1)[C@@H](NC(=O)C(C)(C)N)C(=O)N1CCCC2(C1)C(=O)N(C)CC2c1ccccc1 (single isomer, unassigned) [Example 1.34] | 115 | –
59 | 86 | 164 | – | – | – | – | CC(C)(C)CN1CC(c2ccccc2)C2(CCCN(C(=O)[C@@H](COCc3ccccc3)NC(=O)C(C)(C)N)C2)C1=O (single isomer, unassigned) [Example 1.40] | 117 | –
– | 99 | 193 | 17 | – | – | – | CN1C(=O)C2(CCCN(C(=O)[C@@H](COCc3ccccc3)NC(=O)C(C)(C)N)C2)C1c1ccccc1 (single isomer, unassigned) [Example 2.0(ii)] | 63 | –
– | – | – | – | – | – | increased aqueous solubility | CN1C[C@@H](c2ccccc2)[C@@]2(CCCN(C(=O)[C@@H](COCc3ccccc3)NC(=O)C(C)(C)N)C2)C1=O.O=C(O)C[C@H](O)C(=O)O [2-Amino-N—[(R)-1-benzyloxymethyl-2-((4S,5R)-2-methyl-1-oxo-4-phenyl-2,7-diaza-spiro[4.5]dec-7-yl)-2-oxo-ethyl]-2-methyl-propionamide L-malate salt] | – | –
– | – | – | – | – | – | increased aqueous solubility | Cc1ccc(C2CN(C)C(=O)C23CCCN(C(=O)[C@@H](COCc2ccccc2)NC(=O)C(C)(C)N)C3)cc1.O=C(O)C[C@H](O)C(=O)O (stereo partly drawn) [2-amino-N-((2R)-3-(benzyloxy)-1-(2-methyl-1-oxo-4-p-tolyl-2,7-diazaspiro[4.5]decan-7-yl)-1-oxopropan-2-yl)-2-methylpropanamide L-malate salt] | – | –
– | – | – | – | – | – | increased aqueous solubility | CN1C[C@@H](c2ccc(F)cc2)[C@@]2(CCCN(C(=O)[C@@H](COCc3ccccc3)NC(=O)C(C)(C)N)C2)C1=O.O=C(O)C[C@H](O)C(=O)O [2-amino-N-((2R)-3-(benzyloxy)-1-((4S,5R)-4-(4-fluorophenyl)-2-methyl-1-oxo-2,7-diazaspiro[4.5]decan-7-yl)-1-oxopropan-2-yl)-2-methylpropanamide L-malate salt] | – | –
7.5 | 89 | 197 | – | – | – | – | CN1C[C@@H](c2ccc(F)cc2)[C@@]2(CCCN(C(=O)[C@@H](COCc3ccccc3)NC(=O)C(C)(C)N)C2)C1=O [Example 1.2, 2-Amino-N-((2R)-3-(benzyloxy)-1-((4S,5R)-4-(4-fluorophenyl)-2-methyl-1-oxo-2,7-diazaspiro[4.5]decan-7-yl)-1-oxopropan-2-yl)-2-methylpropanamide] | 100 | –
